The text below walks through data of patent US12600726B2, “Antagonists of the muscarinic acetylcholine receptor M4” (Vanderbilt University, priority 2017, dated 2026).

By IC50 is commonly meant the midpoint of a concentration-inhibition curve.

Molecules are shown by their SMILES.

The target of one test is T1, Human M4 (Homo sapiens, UniProt P08173).
T1 construct: expressed in transfected cells; host or cells: CHO-K1 (ATCC), stably expressing M4 and Gqi5
T1 sequence (P08173 1-479): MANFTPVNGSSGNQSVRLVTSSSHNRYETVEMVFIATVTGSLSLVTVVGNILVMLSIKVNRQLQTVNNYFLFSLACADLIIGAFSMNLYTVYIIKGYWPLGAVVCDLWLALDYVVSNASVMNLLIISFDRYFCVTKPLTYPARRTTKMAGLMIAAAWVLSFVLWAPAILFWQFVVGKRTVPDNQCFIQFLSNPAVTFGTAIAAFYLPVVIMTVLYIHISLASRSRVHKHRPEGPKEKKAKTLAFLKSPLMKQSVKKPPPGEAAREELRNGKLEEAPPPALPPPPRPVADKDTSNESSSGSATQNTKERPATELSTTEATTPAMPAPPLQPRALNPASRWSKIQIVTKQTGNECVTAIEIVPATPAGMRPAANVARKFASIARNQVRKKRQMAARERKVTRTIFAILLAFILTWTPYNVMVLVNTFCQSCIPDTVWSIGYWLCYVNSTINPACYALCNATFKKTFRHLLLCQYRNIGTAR
The test is described as follows: mAChR M4 cell-based functional calcium flux assay (human M4/Gqi5/CHO cells). Conditions: for Emin (human M4): % ACh maximum at 30 μM; for IC50: decrease of the response to an EC80 concentration of acetylcholine. The gist of the method:
(§1)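 CHO-K1 cells stably co-expressing M4 of the given species with chimeric Gqi5 were loaded with Fluo-4 AM and read for calcium flux. Compounds (10-point, 1:3 dilutions) were added first, followed by an acetylcholine EC20 at 143 s and an EC80 at 268 s. IC50 reflects the concentration-dependent fall in the EC80 response, fitted with a four-parameter logistic.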
Background: Calcium assays in cells follow changes in intracellular calcium, usually with a dye or a luminescent sensor.

For the next test, the target named is T2, Rat M4 (Rattus norvegicus, UniProt P08485).
T2 construct: expressed in transfected cells; host or cells: CHO-K1 (ATCC), stably expressing M4 and Gqi5
T2 sequence (P08485 1-478): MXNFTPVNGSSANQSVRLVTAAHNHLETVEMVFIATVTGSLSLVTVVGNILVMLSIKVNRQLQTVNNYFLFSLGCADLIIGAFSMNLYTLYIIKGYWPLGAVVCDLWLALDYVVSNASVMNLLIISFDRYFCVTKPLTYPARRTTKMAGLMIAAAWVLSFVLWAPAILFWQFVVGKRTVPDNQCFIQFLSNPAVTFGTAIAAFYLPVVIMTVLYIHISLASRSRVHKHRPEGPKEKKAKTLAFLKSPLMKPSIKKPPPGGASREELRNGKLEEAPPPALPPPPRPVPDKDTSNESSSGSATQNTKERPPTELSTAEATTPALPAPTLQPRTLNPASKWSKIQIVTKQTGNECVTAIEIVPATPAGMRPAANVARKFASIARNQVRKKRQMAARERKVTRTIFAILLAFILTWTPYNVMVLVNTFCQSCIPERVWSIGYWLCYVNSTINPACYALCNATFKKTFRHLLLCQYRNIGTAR
The test is described as follows: mAChR M4 cell-based functional calcium flux assay (rat M4/Gqi5/CHO cells). The following applies: for Emin (rat M4): % ACh maximum at 30 μM; for IC50: decrease of the response to an EC80 concentration of acetylcholine. A digest of the protocol: as §1

Turning to `Cc1ccncc1-c1ccc(NCC2CC23CCN(CCC(C)(C)C)CC3)nn1` (stereo not shown) [Compound 25, N-[[6-(3,3-dimethylbutyl)-6-azaspiro[2.5]octan-2-yl]methyl]-6-(4-methyl-3-pyridyl)pyridazin-3-amine], on Human M4, the “Emin (human M4)” value is given as 2.93% and the IC50 is 0.00435 µM. Further, on Rat M4, the “Emin (rat M4)” value turned out to be 3.75% and the IC50 was 0.0778 µM.

As for `CC(C)(C)CCN1CCC2(CC1)CC2CNc1ccc(-c2ccccc2F)nn1` (stereo not shown) [Compound 26, N-[[6-(3,3-dimethylbutyl)-6-azaspiro[2.5]octan-2-yl]methyl]-6-(2-fluorophenyl)pyridazin-3-amine], at Human M4, the “Emin (human M4)” value came to 2.98% and the IC50 was determined as 0.0133 µM. Further, at Rat M4, the “Emin (rat M4)” value came out at 3.40% and the IC50 was 0.192 µM.

With `CC(C)(C)CCN1CCC2(CC1)CC2CNc1ccc(-c2cccc(F)c2)nn1` (stereo not shown) [Compound 27, N-[[6-(3,3-dimethylbutyl)-6-azaspiro[2.5]octan-2-yl]methyl]-6-(3-fluorophenyl)pyridazin-3-amine], at Human M4, the “Emin (human M4)” value is on record as 3.18% and the IC50 was determined as 0.0213 µM. Also, at Rat M4, the “Emin (rat M4)” value was found to be 3.07% and the IC50 was 0.153 µM.

For the molecule `CC(C)(C)CCN1CCC2(CC1)CC2CNc1ccc(-c2ccc(F)cc2F)nn1` (stereo not shown) [Compound 28, 6-(2,4-difluorophenyl)-N-[[6-(3,3-dimethylbutyl)-6-azaspiro[2.5]octan-2-yl]methyl]pyridazin-3-amine], at Human M4, the “Emin (human M4)” value turned out to be 2.74% and the IC50 was 0.0557 µM. For the same molecule, on Rat M4, the “Emin (rat M4)” value is reported as 2.59% and the IC50 turned out to be 0.261 µM.

In the case of `Cc1ccc(F)cc1-c1ccc(NCC2CC23CCN(CCC(C)(C)C)CC3)nn1` (stereo not shown) [Compound 29, N-[[6-(3,3-dimethylbutyl)-6-azaspiro[2.5]octan-2-yl]methyl]-6-(5-fluoro-2-methyl-phenyl)pyridazin-3-amine], at Human M4, the “Emin (human M4)” value is given as 2.78% and the IC50 is 0.0172 µM. In addition, at Rat M4, the “Emin (rat M4)” value is on record as 3.14% and the IC50 turned out to be 0.0398 µM.

`CC(C)(C)CCN1CCC2(CC1)CC2CNc1ccc(-c2cc(F)ccc2F)nn1` (stereo not shown) [Compound 30, 6-(2,5-difluorophenyl)-N-[[6-(3,3-dimethylbutyl)-6-azaspiro[2.5]octan-2-yl]methyl]pyridazin-3-amine]: at Human M4, the “Emin (human M4)” value is 2.43% and the IC50 is 0.0312 µM. Moreover, at Rat M4, the “Emin (rat M4)” value was determined as 3.26% and the IC50 came to 0.107 µM.

Regarding `COc1ccc(F)cc1-c1ccc(NCC2CC23CCN(CCC(C)(C)C)CC3)nn1` (stereo not shown) [Compound 31, N-[[6-(3,3-dimethylbutyl)-6-azaspiro[2.5]octan-2-yl]methyl]-6-(5-fluoro-2-methoxy-phenyl)pyridazin-3-amine], at Human M4, the “Emin (human M4)” value is 3.03% and the IC50 was 0.0221 µM. Moreover, on Rat M4, the “Emin (rat M4)” value stood at 2.87% and the IC50 came out at 0.0688 µM.

For the molecule `CC(C)(C)CCN1CCC2(CC1)CC2CNc1ccc(-c2ccc(F)c(F)c2)nn1` (stereo not shown) [Compound 32, 6-(3,4-difluorophenyl)-N-[[6-(3,3-dimethylbutyl)-6-azaspiro[2.5]octan-2-yl]methyl]pyridazin-3-amine], at Human M4, the “Emin (human M4)” value was found to be 2.71% and the IC50 stood at 0.0749 µM. In addition, on Rat M4, the “Emin (rat M4)” value is on record as 2.80% and the IC50 came to 0.168 µM.

With `CC(C)(C)CCN1CCC2(CC1)CC2CNc1ccc(-c2cc(F)cc(F)c2)nn1` (stereo not shown) [Compound 33, 6-(3,5-difluorophenyl)-N-[[6-(3,3-dimethylbutyl)-6-azaspiro[2.5]octan-2-yl]methyl]pyridazin-3-amine], on Human M4, the “Emin (human M4)” value stood at 2.48% and the IC50 was 0.04 µM. For the same molecule, on Rat M4, the “Emin (rat M4)” value is listed as 2.09% and the IC50 stood at 0.11 µM.

For `CC(C)(C)CCN1CCC2(CC1)CC2CNc1ccc(-c2ccccc2)nn1` (stereo not shown) [Compound 34, N-[[6-(3,3-dimethylbutyl)-6-azaspiro[2.5]octan-2-yl]methyl]-6-phenyl-pyridazin-3-amine], at Human M4, the “Emin (human M4)” value was found to be 2.24% and the half-inhibitory concentration (IC50) was found to be 0.0178 µM. Also, at Rat M4, the “Emin (rat M4)” value turned out to be 2.88% and the IC50 worked out at 0.0862 µM.
